Experimental data taken from US20080226571A1, “Compositions and methods to effect enhanced photoprotection against UV A and UV B induced damage of human skin” (priority 2007, published 2008).
Marks after values point to notes of the source that are not given here.

How the values were obtained:
Format in all cases: cell-based
[1] = system: HaCaT human keratinocyte cell line; assay: UV A protection of HaCaT keratinocytes, topical application model (Protocol I, SRB viability); conditions: for % UV A protection: Topical model; for UV protection UV A: summary in words, Table I, HaCaT, topical and oral protocols not separated
Protocol: (§1) The protocol is based on evaluating the reduction in photo damage caused by UV A and UV B in HaCaT human keratinocyte cell line. The cell viability is measured by Sulphorhodamine B assay (SRB assay) after exposure to UV rays. The percentage of UV protection is calculated based on the number of viable cells in the control (untreated) and test HaCaT human keratinocytes (treated with the labdane-diterpenoids based composition of the present invention) after UV exposure. The photoprotection assays to screen compounds for their UV protection efficacy during topical and oral applications as discussed in J Am Acad Dermatol 2003; 49: 458-472 is adopted as a reference.
(§2) Protocol I—Screening compounds suited for topical applications for UV protection efficacy 0.5×10^4 HaCaT human keratinocyte cells/well are counted and seeded into a 96 well micro titer plates. The cells are incubated at 37° C. in 5% CO2 for 24 hours. The growth medium is then removed and replaced with medium containing varying concentrations of the labdane-diterpenoids based composition of the present invention. The cells are immediately exposed to ultraviolet irradiation and further incubated for 72 hours. After 72 hours, the cell viability is determined by SRB assay.
(§3) The UV A exposure in both the protocols involves three UV A bulbs providing 108 watts of power. The plates are exposed for 1 hour at a distance of 5 cm from the source of light. The UV B exposure in both the protocols involves three UV B bulbs which provide 100 μwatt/cm^2 or 0.14 J/cm^2 irradiation dose. The plates are exposed for 7 minutes at a distance of 30 cm from the source of light.

[2] = system: HaCaT human keratinocyte cell line; assay: UV A protection of HaCaT keratinocytes, oral application model (Protocol II)
Protocol: as §1
(§4) Protocol II—Screening compounds suited for oral applications for UV protection efficacy 0.5×10^4 HaCaT human keratinocyte cells/well are counted and seeded into a 96 well micro titer plates. The cells are incubated at 37° C. in 5% CO2 for 24 hours. The growth medium is then removed and replaced with medium containing varying concentrations of the labdane-diterpenoids based composition of the present invention. The cells are then incubated for 24 hours to be followed by UV treatment. The UV treated cells are further incubated for 48 hours after which, cell viability is determined using the SRB or neutral red uptake assays.
as §3

[3] = system: HaCaT human keratinocyte cell line; assay: UV B protection of HaCaT keratinocytes, topical application model (Protocol I, SRB viability); conditions: for % UV B protection as compared to control: Table B, Topical model; for UV protection UV B: summary in words, Table I, HaCaT, topical and oral protocols not separated
Protocol: as §1, §2, §3

[4] = system: HaCaT human keratinocyte cell line; assay: UV B protection of HaCaT keratinocytes, oral application model (Protocol II)
Protocol: as §1, §4, §3

[5] = system: B16F1 mouse melanoma cells; assay: Intracellular melanin enhancement; conditions: for dose levels still tolerated and effective, relative to the maximum tolerated dose levels of active III: mouse; for Melanin enhancement: summary in words, Table I; for melanin enhancement activity, comparison in words: Tables C and E; for Folds of Melanin Enhancement compared to control: Table E
Protocol: B16F1 mouse melanoma cells are treated with varying concentrations of actives I, II and III and other optional actives or combinations thereof at a time interval of 3 days for nine consecutive days. The intracellular melanin in both the controls and test B16F1 mouse melanoma cells is extracted by 1 N NaOH and subjected to a heat treatment at 100° C. The extracted melanin is estimated at 405 nm in a Fluostar Optima Microplate Reader.

cells of the skin = assay: Relative cytotoxicity (summary Table I); conditions: summary in words

SMILES: C=C[C@@]1(C)CC(=O)[C@]2(O)[C@@]3(C)[C@@H](O)CCC(C)(C)[C@@H]3[C@H](OC(C)=O)[C@H](O)[C@@]2(C)O1 [Active II, 6β-acetoxy-8,13-epoxy-1α,7β,9α-trihydroxylabd-14-en-11-one]
- % UV A protection ([1]; 0.25 μg/ml): 10%
- % UV A protection ([1]; 0.5 μg/ml): 13%
- % UV A protection ([1]; 1 μg/ml): 18* %
- % UV A protection ([1]; 2 μg/ml): 25* %
- % UV A protection ([1]; 3 μg/ml): 35* %
- % UV A protection ([1]; 5 μg/ml): 45* %
- % UV A protection ([1]; 12 μg/ml): 50* %
- UV protection UV A [1]: Moderate
- % UV A protection ([2]; 0.25 μg/ml): 15* %
- % UV A protection ([2]; 0.5 μg/ml): 25* %
- % UV A protection ([2]; 1 μg/ml): 55* %
- % UV A protection ([2]; 2 μg/ml): 75* %
- % UV A protection ([2]; 3 μg/ml): 98* %
- % UV A protection ([2]; 5 μg/ml): 97* %
- % UV A protection ([2]; 12 μg/ml): 98* %
- % UV B protection as compared to control ([3]; 0.25 μg/ml): 0%
- % UV B protection as compared to control ([3]; 0.5 μg/ml): 0%
- % UV B protection as compared to control ([3]; 1 μg/ml): 15* %
- % UV B protection as compared to control ([3]; 2 μg/ml): 25* %
- % UV B protection as compared to control ([3]; 3 μg/ml): 28* %
- % UV B protection as compared to control ([3]; 5 μg/ml): 30* %
- % UV B protection as compared to control ([3]; 12 μg/ml): 35* %
- UV protection UV B [3]: Moderate
- % UV B protection ([4]; 0.25 μg/ml): 10* %
- % UV B protection ([4]; 0.5 μg/ml): 15* %
- % UV B protection ([4]; 1 μg/ml): 18* %
- % UV B protection ([4]; 2 μg/ml): 23* %
- % UV B protection ([4]; 3 μg/ml): 30* %
- % UV B protection ([4]; 5 μg/ml): 35* %
- % UV B protection ([4]; 12 μg/ml): 40* %
- No. of folds of Melanin Enhancement compared to control ([5]; 0.25 μg/ml): 1 folds
- No. of folds of Melanin Enhancement compared to control ([5]; 0.5 μg/ml): 1.1 folds
- No. of folds of Melanin Enhancement compared to control ([5]; 1 μg/ml): 1.6* folds
- No. of folds of Melanin Enhancement compared to control ([5]; 2 μg/ml): 2.3* folds
- No. of folds of Melanin Enhancement compared to control ([5]; 3 μg/ml): 3* folds
- No. of folds of Melanin Enhancement compared to control ([5]; 5 μg/ml): 3.45* folds
- No. of folds of Melanin Enhancement compared to control ([5]; 12 μg/ml): 3.5* folds
- dose levels still tolerated and effective, relative to the maximum tolerated dose levels of active III [5]: 2.4 times
- Melanin enhancement [5]: Moderate

SMILES: C=C[C@@]1(C)CC(=O)[C@]2(O)[C@@]3(C)[C@@H](O)CCC(C)(C)[C@@H]3[C@H](O)[C@H](O)[C@@]2(C)O1 [Active I, 8,13-epoxy-1α,6β,7β,9α-tetrahydroxylabd-14-en-11-one]
- % UV A protection ([1]; 0.25 μg/ml): 14%
- % UV A protection ([1]; 0.5 μg/ml): 16%
- % UV A protection ([1]; 1 μg/ml): 19%
- % UV A protection ([1]; 2 μg/ml): 31* %
- % UV A protection ([1]; 3 μg/ml): 42* %
- % UV A protection ([1]; 5 μg/ml): 49* %
- % UV A protection ([1]; 12 μg/ml): 59* %
- UV protection UV A [1]: Significant
- % UV A protection ([2]; 0.25 μg/ml): 24* %
- % UV A protection ([2]; 0.5 μg/ml): 29* %
- % UV A protection ([2]; 1 μg/ml): 58* %
- % UV A protection ([2]; 2 μg/ml): 82* %
- % UV A protection ([2]; 3 μg/ml): 98* %
- % UV A protection ([2]; 5 μg/ml): 97* %
- % UV A protection ([2]; 12 μg/ml): 98* %
- % UV B protection as compared to control ([3]; 0.25 μg/ml): 10%
- % UV B protection as compared to control ([3]; 0.5 μg/ml): 13%
- % UV B protection as compared to control ([3]; 1 μg/ml): 20* %
- % UV B protection as compared to control ([3]; 2 μg/ml): 35* %
- % UV B protection as compared to control ([3]; 3 μg/ml): 45* %
- % UV B protection as compared to control ([3]; 5 μg/ml): 50* %
- % UV B protection as compared to control ([3]; 12 μg/ml): 55* %
- UV protection UV B [3]: Significant
- % UV B protection ([4]; 0.25 μg/ml): 15* %
- % UV B protection ([4]; 0.5 μg/ml): 35* %
- % UV B protection ([4]; 1 μg/ml): 65* %
- % UV B protection ([4]; 2 μg/ml): 80* %
- % UV B protection ([4]; 3 μg/ml): 91* %
- % UV B protection ([4]; 5 μg/ml): 97* %
- % UV B protection ([4]; 12 μg/ml): 98* %
- No. of folds of Melanin Enhancement compared to control ([5]; 0.25 μg/ml): 1.1 folds
- No. of folds of Melanin Enhancement compared to control ([5]; 0.5 μg/ml): 1.25 folds
- No. of folds of Melanin Enhancement compared to control ([5]; 1 μg/ml): 1.9* folds
- No. of folds of Melanin Enhancement compared to control ([5]; 2 μg/ml): 2.8* folds
- No. of folds of Melanin Enhancement compared to control ([5]; 3 μg/ml): 3.2* folds
- No. of folds of Melanin Enhancement compared to control ([5]; 5 μg/ml): 3.8* folds
- No. of folds of Melanin Enhancement compared to control ([5]; 12 μg/ml): 4.2* folds
- melanin enhancement activity, comparison in words [5]: more than active II or active III
- dose levels still tolerated and effective, relative to the maximum tolerated dose levels of active III [5]: 2.4 times
- Melanin enhancement [5]: Significant

SMILES: C=C[C@@]1(C)CC(=O)[C@]2(O)[C@@]3(C)[C@@H](O)CCC(C)(C)[C@@H]3[C@H](O)[C@H](OC(C)=O)[C@@]2(C)O1 [Active III, 7β-acetoxy-8,13-epoxy-1α,6β,9α-trihydroxylabd-14-en-11-one]
- % UV A protection ([1]; 0.25 μg/ml): 5%
- % UV A protection ([1]; 0.5 μg/ml): 10%
- % UV A protection ([1]; 1 μg/ml): 15* %
- % UV A protection ([1]; 2 μg/ml): 20* %
- % UV A protection ([1]; 3 μg/ml): 29* %
- % UV A protection ([1]; 5 μg/ml): toxic
- % UV A protection ([1]; 12 μg/ml): toxic
- UV protection UV A [1]: Moderate
- % UV A protection ([2]; 0.25 μg/ml): 10%
- % UV A protection ([2]; 0.5 μg/ml): 15* %
- % UV A protection ([2]; 1 μg/ml): 20* %
- % UV A protection ([2]; 2 μg/ml): 26* %
- % UV A protection ([2]; 3 μg/ml): 38* %
- % UV A protection ([2]; 5 μg/ml): toxic
- % UV A protection ([2]; 12 μg/ml): toxic
- % UV B protection as compared to control ([3]; 0.25 μg/ml): 0%
- % UV B protection as compared to control ([3]; 0.5 μg/ml): 2%
- % UV B protection as compared to control ([3]; 1 μg/ml): 5%
- % UV B protection as compared to control ([3]; 2 μg/ml): 5%
- % UV B protection as compared to control ([3]; 3 μg/ml): 5%
- % UV B protection as compared to control ([3]; 5 μg/ml): toxic
- % UV B protection as compared to control ([3]; 12 μg/ml): toxic
- UV protection UV B [3]: Nil
- % UV B protection ([4]; 0.25 μg/ml): 0%
- % UV B protection ([4]; 0.5 μg/ml): 2%
- % UV B protection ([4]; 1 μg/ml): 4%
- % UV B protection ([4]; 2 μg/ml): 4%
- % UV B protection ([4]; 3 μg/ml): 5%
- % UV B protection ([4]; 5 μg/ml): toxic
- % UV B protection ([4]; 12 μg/ml): toxic
- No. of folds of Melanin Enhancement compared to control ([5]; 0.25 μg/ml): 1 folds
- No. of folds of Melanin Enhancement compared to control ([5]; 0.5 μg/ml): 1.1 folds
- No. of folds of Melanin Enhancement compared to control ([5]; 1 μg/ml): 1.5* folds
- No. of folds of Melanin Enhancement compared to control ([5]; 2 μg/ml): 2* folds
- No. of folds of Melanin Enhancement compared to control ([5]; 3 μg/ml): 2.8* folds
- No. of folds of Melanin Enhancement compared to control ([5]; 5 μg/ml): toxic
- No. of folds of Melanin Enhancement compared to control ([5]; 12 μg/ml): toxic
- Melanin enhancement [5]: Moderate
- Cytotoxicity (cells of the skin): Cytotoxic

SMILES: COc1c2ccoc2cc2oc(=O)ccc12 [Active 5-MOP, 5-methoxy psoralen]
- Folds of Melanin Enhancement compared to control ([5]; 0.25 μg/ml): 1.1 Folds
- Folds of Melanin Enhancement compared to control ([5]; 0.5 μg/ml): 1.15 Folds
- Folds of Melanin Enhancement compared to control ([5]; 1 μg/ml): 1.5* Folds
- Folds of Melanin Enhancement compared to control ([5]; 2 μg/ml): toxic
- Folds of Melanin Enhancement compared to control ([5]; 3 μg/ml): toxic
- Folds of Melanin Enhancement compared to control ([5]; 5 μg/ml): toxic
- Folds of Melanin Enhancement compared to control ([5]; 12 μg/ml): toxic
- melanin enhancement activity, comparison in words [5]: comparable to active III but inferior to active I
